Legend:
[1] = system: patients with moderate and high risk NSTE-ACS; assay: ACUITY analysis: clinical outcomes at 30 days, consistent UFH/enoxaparin plus GP IIb/IIIa inhibitor vs switch to bivalirudin, and antithrombin-naïve patients; details: human, in vivo
Text: A total of 4215 patients received prior antithrombin therapy with either UFH or enoxaparin before randomization. Of these, 2137 were randomized to receive the same antithrombin plus a GP IIb/IIIa inhibitor (consistent), while 2078 patients were randomized to receive bivalirudin (switch). There were 2889 patients naïve to antithrombin therapy at randomization, and of these, 1462 patients were randomized to UFH/enoxaparin plus a GP IIb/IIIa inhibitor and 1427 to bivalirudin monotherapy (FIG. 1).
At 30 days, there was no difference in composite ischemia between the two groups: 6.9% for patients switched to bivalirudin vs. 7.4% for patients remaining on consistent UFH/enoxaparin ([RR 0.93; 0.75-1.16], p=0.52). […] Transfusions were also lower in the patients switched to bivalirudin vs. patients remaining on consistent UFH/enoxaparin (1.5% vs. 2.6% [RR 0.60; 0.39-0.92], p=0.02). (Table 2, FIG. 2).
Tables 3a and 3b show clinical outcomes according to type of heparin therapy (UFH or enoxaparin) in patients on prior antithrombin therapy and in patients naive to antithrombin therapy. […]

[2] = in vivo; cited from earlier work
[3] = system: patients with moderate and high risk NSTE-ACS; details: ACUITY; bivalirudin monotherapy vs UFH/enoxaparin plus a GP IIb/IIIa inhibitor; cited from earlier work

| Major bleeding, number of patients [1] | Transfusion, number of patients [1] | Molecule | doses not causing adverse effects [2] | absolute reduction in major bleeding [3] [%] | relative reduction in major bleeding [3] [%] |
| --- | --- | --- | --- | --- | --- |
| 42 | 19 | enoxaparin |  |  |  |
|  |  | CC[C@H](C)[C@H](NC(=O)[C@H](CCC(=O)O)NC(=O)[C@H](CCC(=O)O)NC(=O)[C@H](Cc1ccccc1)NC(=O)[C@H](CC(=O)O)NC(=O)CNC(=O)[C@H](CC(N)=O)NC(=O)CNC(=O)CNC(=O)CNC(=O)CNC(=O)[C@@H]1CCCN1C(=O)[C@H](CCCNC(=N)N)NC(=O)[C@@H]1CCCN1C(=O)[C@H](N)Cc1ccccc1)C(=O)N1CCC[C@H]1C(=O)N[C@@H](CCC(=O)O)C(=O)N[C@@H](CCC(=O)O)C(=O)N[C@@H](Cc1ccc(O)cc1)C(=O)N[C@@H](CC(C)C)C(=O)O [Bivalirudin, bivalirudin] | up to 7.5 mg/kg | 2.7 | 47 |

— patent US20090247465A1, “Novel Use of Bivalirudin in the Treatment of Acute Coronary Syndrome” (priority 2008, published 2009)
